Reference: patent US20110160280A1, “CANCER-RELATED GENES, CDCA5, EPHA7, STK31 AND WDHD1” (Oncotherapy Science, Inc., priority 2007, published 2011)

Experiments:
[1] = system: WDHD1; test: RNA interference assay: WDHD1 knockdown by RT-PCR; type: cell-based, human; settings: A549, LC319 and TE9 cells
Protocol: Total RNA was extracted from cultured cells using Trizol reagent (Life Technologies, Inc. Gaithersburg, Md.) according to the manufacturer's protocol. Extracted RNAs were treated with DNase I (Nippon Gene, Tokyo, Japan) and reversely-transcribed using oligo (dT) primer and SuperScript II. The primer sets for amplification were as follows:
(§1) Small interfering RNA (siRNA) duplexes (Dharmacon, Inc., Lafayette, Colo.) (600 pM) were transfected into lung-cancer cell lines LC319 and A549 for CDCA5; NCI-H520 and SBC-5 for EPHA7; LC319 for WDHD1, and esophageal cancer cell line TE9 for WDHD1 using 30 μl of Lipofectamine 2000 (Invitrogen, Carlsbad, Calif.) following the manufacturer's protocol. The transfected cells were cultured for 7 days, and the number of colonies was counted by Giemsa staining, and viability of cells was evaluated by 3-(4,5-dimethylthiazol-2-yl)-2,5-diphenyltetrazolium bromide (MTT) assay (cell counting kit-8 solution; Dojindo Laboratories, Kumanoto, Japan), at 7 days after transfection. To confirm suppression of gene expression, semiquantitative RT-PCR was carried out with synthesized primers described above.

[2] = system: TE9 cells; test: RNA interference assay (oligo based): colony formation and MTT assays; type: cell-based, human
Protocol: as §1

[3] = system: LC319 cells; test: as above; type: cell-based, human
Protocol: as §1

[4] = system: A549 cells; test: Time-lapse imaging (live cell imaging) after siRNA for WDHD1; type: cell-based, human; settings: control cells divided about every 10 hours
Protocol: Cells were grown on a 35 mm glass-bottom dish in phenol red-free Dulbecco's modified Eagle's medium containing 10% fetal bovine serum (FBS). Cells were transfected with siRNA and subjected to time-lapse imaging using a computer-assisted fluorescence microscope (Olympus, LCV100) equipped with an objective lens (Olympus, UAPO 40×/340 N.A.=0.90), a halogen lamp, a red LED (620 nm), a CCD camera (Olympus, DP30), differential interference contrast (DIC) optical components, and interference filters. For DIC imaging, the red LED was used with a filter cube containing an analyzer. Image acquisition and analysis were performed by using MetaMorph 6.13 software (Universal Imaging, Media, Pa.).

[5] = system: mitotic cells; test: Immunocytochemical analysis of mitotic cells after siRNA for WDHD1; type: cell-based; settings: control si-LUC: normal metaphase figures
Protocol: Cultured cells were washed twice with PBS(−), fixed in 4% formaldehyde solution for 30 min at room temperature and then rendered permeable with PBS(−) containing 0.1% Triton X-100 for 3 min at room temperature. Nonspecific binding was blocked by Casblock (ZYMED, San Francisco, Calif.) for 10 min at room temperature for CDCA5 and WDHD1, by Casblock (ZYMED, San Francisco, Calif.) for 7 min at room temperature for EPHA7, 3% bovine serum albumin in PBS(−) for 7 min at room temperature for STK31. Cells were then incubated for 60 min (for CDCA5, EPHA7 or STK31) or 10 min (for WDHD1) at room temperature with primary antibodies diluted in PBS containing 3% BSA. After being washed with PBS(−), the cells were stained by a donkey anti-rabbit secondary antibody conjugated to Alexa488 (Molecular Probes) (for CDCA5 and EPHA7) or FITC-conjugated secondary antibody (Santa Cruz Biotechnology, Santa Cruz, Calif.) (for STK31 and WDHD1) at 1:1,000 dilutions for 60 min at room temperature. After another wash with PBS(−), each specimen was mounted with Vectashield (Vector Laboratories, Inc., Burlingame, Calif.) containing 4′,6-diamidino-2-phenylindole and visualized with Spectral Confocal Scanning Systems (TSC SP2 AOBS; Leica Microsystems, Wetzlar, Germany).

[6] = system: A549 cells; test: RNA interference assay (oligo based): colony formation and MTT assays; type: cell-based, human
[7] = system: A549 cells; test: Flow cytometry (cell cycle) after si-WDHD1; type: cell-based, human
Protocol: Cells were collected in PBS, and fixed in 70% cold ethanol for 30 minutes. After treatment with 100 μg/mL RNase (Sigma/Aldrich, St. Louis, Mo.), the cells were stained with 50 μg/mL propidium iodide (Sigma/Aldrich, St.) in PBS. Flow cytometry was done on a Becton Dickinson FACScan and analyzed by ModFit software (Verity Software House, Inc., Topsham, Me.). The cells selected from at least 20,000 ungated cells were analyzed for DNA content.

[8] = synchronized A549 cells after cell cycle release

**Q.** “5′-GGUAAUACGUGGACUCCUA UU-3′ (GGUAAUACGUGGACUCCUAUU; listed as RNA, chemistry not given here) [si-WDHD1-#2]” was tested. Which “WDHD1 knockdown effect (RT-PCR)” value [1] did it give?
**A.** knockdown effect was confirmed

**Q.** What about the “number of TE9 cells (MTT and colony-formation assays), siRNA against WDHD1” value [2] of the same substance?
**A.** drastic reduction in the number of cells

**Q.** What about the “number of LC319 cells (MTT and colony-formation assays), siRNA against WDHD1” value [3] of the same substance?
**A.** drastic reduction in the number of cells

**Q.** And the “cell division and cell death (time-lapse microscopy)” value [4]?
**A.** divided slowly and died shortly after cell division

**Q.** What about the “chromosome congression in mitotic cells” value [5] of the same substance?
**A.** chromosomes failed to congress at the spindle midzone

**Q.** What about the “number of A549 cells (MTT and colony-formation assays), siRNA against WDHD1” value [6] of the same substance?
**A.** drastic reduction in the number of cells

**Q.** What about the “number of cells in S phase” value ([7]; A549 cells, 24˜72 hours after transfection) of the same substance?
**A.** continuously decreased

**Q.** What about the “proportion of cells in G0/G1 phase” value ([7]; A549 cells, 48˜72 hours after transfection) of the same substance?
**A.** increased

**Q.** And the “number of cells in G0/G1 phase” value [7, 8]?
**A.** increased

**Q.** What about the “progression of S phase” value [7, 8] of the same substance?
**A.** delayed
